Laboratory results reported in patent US20110112057A1, “Sequential administration of 20,20,21,21,21-pentafluoro-17-hydroxy-11Beta-[4-(hydroxyacetyl)phenyl]-19-nor-17Alpha-pregna-4,9-dien-3-one and one or more progestogens for the treatment of gynaecological disorders” (BAYER SCHERING PHARIMA AKTIENGESELL SCHAFT, priority 2008, published 2011).
Values belong to the compound of their own block, whether it stands above or below them.

Legend:
[1] = tested on: women of reproductive age; experiment: randomised study of sequential treatment cycles with progesterone receptor antagonist followed by a progestogen; format: in vivo
Procedure: Women of reproductive age are treated in a randomised study sequentially in two treatment cycles with 20,20,21,21,21-pentafluoro-17-hydroxy-11β-[4-(hydroxyacetyl)phenyl]-19-nor-17α-pregna-4,9-dien-3-one. For this purpose, 20,20,21,21,21-pentafluoro-17-hydroxy-11β-[4-(hydroxyacetyl)phenyl]-19-nor-17α-pregna-4,9-dien-3-one is administered to the women in each case for 84 days with a daily dose of between about 1 mg and about 50 mg, followed by intake of a progestogen over a period of about 10 to 14 days. This complete treatment cycle is repeated once.

[2] = tested on: endometrium of patients with symptomatic uterine leiomyomata; conditions: after use for 3 months (Williams 2007); cited from earlier work
[3] = tested on: healthy, tube-ligated women; experiment: randomised study on the effect of lonaprisan in healthy, tube-ligated women; format: in vivo
Procedure: 36 healthy, tube-ligated women from 24 to 43 years of age were subjects in a randomised study on the effect of lonaprisan. For this purpose, the women were divided into three groups: 7 women received placebo, 14 women 1 mg of lonaprisan and 15 women 10 mg of lonaprisan over a period of 3 months, once a day.

[4] = 1 mg or 10 mg lonaprisan once a day over 3 months, not observed in placebo group

SMILES: C[C@]12C[C@H](c3ccc(C(=O)CO)cc3)C3=C4CCC(=O)C=C4CC[C@H]3[C@@H]1CC[C@@]2(O)C(F)(F)C(F)(F)F [20,20,21,21,21-pentafluoro-17-hydroxy-11β-[4-(hydroxyacetyl)phenyl]-19-nor-17α-pregna-4,9-dien-3-one]
bleeding pattern during the treatment phase ([1]; 84 days, daily dose about 1 mg to about 50 mg): amenorrhoea or a greatly reduced bleeding | bleeding after sequential treatment with the progestogen ([1]; 84 days, daily dose about 1 mg to about 50 mg, followed by a progestogen for about 10 to 14 days, cycle repeated once): menstrual bleeding following administration of the progestogen | endometrial biopsies: persistent changes in the endometrium ([1]; after completion of each treatment cycle): no persistent changes in the endometrium

SMILES: COC[C@]1(OC)CC[C@H]2[C@@H]3CCC4=CC(=O)CCC4=C3[C@@H](c3ccc(/C=N/O)cc3)C[C@@]21C [asoprisnil]
endometrial pattern diagnosed [2]: non-physiological secretory effect | endometrial vessels [2]: thickening of the smooth muscle cell layer surrounding the endometrial vessels

menstrual bleeding after discontinuation ([3]; after discontinuation of lonaprisan): spontaneous return of menstrual bleeding | endometrial biopsies: persistent changes in the endometrium ([3]; after the first menstrual bleeding after completion of the treatment phase): no persistent changes in the endometrium
SMILES: CC(=O)c1ccc([C@H]2C[C@@]3(C)[C@@H](CC[C@@]3(O)C(F)(F)C(F)(F)F)[C@@H]3CCC4=CC(=O)CCC4=C32)cc1 [lonaprisan, 11β-(4-acetylphenyl)-20,20,21,21,21-pentafluoro-17-hydroxy-19-nor-17α-pregna-4,9-dien-3-one]
bleeding pattern [3, 4]: amenorrhoea or a greatly reduced bleeding | effect on ovulation [3, 4]: inhibition of ovulation
